Like-named read-outs stand apart in the source and are kept apart here.
Columns and labels:
Assay in all cases: Test C pre/postemergence
Assay type in all cases: in vivo
[1] = system: giant foxtail (Setaria faberii); details: Setaria faberi; for pest or weed control at 125 g/ha: 125 g ai/ha; for pest or weed control at 31 g/ha: 31 g ai/ha; for pest or weed control at 62 g/ha: 62 g ai/ha; for pest or weed control at 250 g/ha: 250 g ai/ha
From the text: (§1) Seeds or nutlets of plant species selected from bermudagrass (Cynodon dactylon), Surinam grass (Brachiaria decumbens), cocklebur (Xanthium strumarium), corn (Zea mays), crabgrass (Digitaria sanguinalis), woolly cupgrass (Eriochloa villosa), giant foxtail (Setaria faberii), goosegrass (Eleusine indica), johnsongrass (Sorghum halepense), kochia (Kochia scoparia), lambsquarters (Chenopodium album), morningglory (Ipomoea coccinea), eastern black nightshade (Solanum ptycanthum), yellow nutsedge (Cyperus esculentus), pigweed (Amaranthus retroflexus), common ragweed (Ambrosia elatior), soybean (Glycine max), common (oilseed) sunflower (Helianthus annuus), and velvetleaf (Abutilon theophrasti) were planted and treated preemergence with test chemicals formulated in a non-phytotoxic solvent mixture which included a surfactant.
(§2) At the same time, plants selected from these crop and weed species and also winter barley (Hordeum vulgare), blackgrass (Alopecurus myosuroides), canarygrass (Phalaris minor), chickweed (Stellaria media), downy brome (Bromus tectorum), green foxtail (Setaria viridis), Italian ryegrass (Lolium multiflorum), wheat (Triticum aestivum), wild oat (Avena fatua) and windgrass (Apera spica-venti) were treated with postemergence applications of some of the test chemicals formulated in the same manner. Plants ranged in height from 2 to 18 cm (1- to 4-leaf stage) for postemergence treatments. Plant species in the flooded paddy test consisted of rice (Oryza sativa), umbrella sedge (Cyperus difformis), duck salad (Heteranthera limosa) and barnyardgrass (Echinochloa crus-galli) grown to the 2-leaf stage for testing. Treated plants and controls were maintained in a greenhouse for 12 to 14 days, after which time all species were compared to controls and visually evaluated. Plant response ratings, summarized in Table C, are based on a scale of 0 to 100 where 0 is no effect and 100 is complete control. A dash (-) response means no test result.

[2] = system: bermudagrass (Cynodon dactylon); details: Cynodon dactylon; for pest or weed control at 31 g/ha: 31 g ai/ha; for pest or weed control at 62 g/ha: 62 g ai/ha; for pest or weed control at 125 g/ha: 125 g ai/ha; for pest or weed control at 250 g/ha: 250 g ai/ha
From the text: as §1, §2

[3] = system: johnsongrass (Sorghum halepense); details: Sorghum halepense; for pest or weed control at 31 g/ha: 31 g ai/ha; for pest or weed control at 62 g/ha: 62 g ai/ha; for pest or weed control at 125 g/ha: 125 g ai/ha; for pest or weed control at 250 g/ha: 250 g ai/ha
From the text: as §1, §2

soybean (Glycine max) = details: Glycine max; for plant injury at 31 g/ha: 31 g ai/ha; for plant injury at 62 g/ha: 62 g ai/ha; for plant injury at 125 g/ha: 125 g ai/ha; for plant injury at 250 g/ha: 250 g ai/ha
From the text: as §1, §2

[4] = post-emergence, Postemergence, scale 0 to 100 (0 no effect, 100 complete control), read-out: Foxtail, Giant plant response rating
[5] = post-emergence, Postemergence, read-out: Plant response rating (scale of 0 to 100), Foxtail, Giant
[6] = post-emergence, Postemergence, scale 0 to 100, read-out: Plant response rating, Foxtail, Giant
[7] = pre-emergence, Preemergence, scale 0 to 100, 0 no effect, 100 complete control, read-out: Plant response rating, Foxtail, Giant
[8] = pre-emergence, Preemergence, scale 0 to 100, read-out: Plant response rating, Foxtail, Giant
[9] = post-emergence, Postemergence, read-out: Plant response rating (scale of 0 to 100), Bermudagrass
[10] = post-emergence, Postemergence, scale 0 to 100 (0 no effect, 100 complete control), read-out: Bermudagrass plant response rating
[11] = post-emergence, Postemergence, scale 0 to 100, read-out: Plant response rating, Bermudagrass
[12] = pre-emergence, Preemergence, scale 0 to 100, 0 no effect, 100 complete control, read-out: Plant response rating, Bermudagrass
[13] = pre-emergence, Preemergence, scale 0 to 100, read-out: Plant response rating, Bermudagrass
[14] = post-emergence, Postemergence, read-out: Plant response rating (scale of 0 to 100), Johnsongrass
[15] = post-emergence, Postemergence, scale 0 to 100 (0 no effect, 100 complete control), read-out: Johnsongrass plant response rating
[16] = post-emergence, Postemergence, scale 0 to 100, read-out: Plant response rating, Johnsongrass
[17] = pre-emergence, Preemergence, scale 0 to 100, 0 no effect, 100 complete control, read-out: Plant response rating, Johnsongrass
[18] = pre-emergence, Preemergence, scale 0 to 100, read-out: Plant response rating, Johnsongrass
[19] = post-emergence, Postemergence, read-out: Plant response rating (scale of 0 to 100), Soybean
[20] = post-emergence, Postemergence, scale 0 to 100 (0 no effect, 100 complete control), read-out: Soybean plant response rating
[21] = post-emergence, Postemergence, scale 0 to 100, read-out: Plant response rating, Soybean
[22] = pre-emergence, Preemergence, scale 0 to 100, 0 no effect, 100 complete control, read-out: Plant response rating, Soybean
[23] = pre-emergence, Preemergence, scale 0 to 100, read-out: Plant response rating, Soybean

SMILES | pest or weed control at 125 g/ha [1, 4] | pest or weed control at 31 g/ha [1, 5] | pest or weed control at 62 g/ha [1, 4] | pest or weed control at 250 g/ha [1, 6] | pest or weed control at 31 g/ha [2, 9] | pest or weed control at 62 g/ha [2, 10] | pest or weed control at 250 g/ha [2, 11] | pest or weed control at 31 g/ha [3, 14] | pest or weed control at 62 g/ha [3, 15] | pest or weed control at 125 g/ha [3, 15] | pest or weed control at 250 g/ha [3, 16] | plant injury at 31 g/ha (soybean (Glycine max); [19]) | plant injury at 62 g/ha (soybean (Glycine max); [20]) | plant injury at 125 g/ha (soybean (Glycine max); [20]) | plant injury at 250 g/ha (soybean (Glycine max); [21]) | other results
COC(=O)c1nc(C2CC2)nc(N)c1Br [Compound 2, methyl 6-amino-5-bromo-2-cyclopropyl-4-pyrimidinecarboxylate] | 65% | 0% | 35% | 70% | 15% | 60% | 80% | 0% | 0% | 25% | 60% | 100% | 100% | 100% | 100% | pest or weed control at 31 g/ha [1, 7]: 0%; pest or weed control at 62 g/ha [1, 7]: 0%; pest or weed control at 125 g/ha [1, 8]: 0%; pest or weed control at 250 g/ha [1, 8]: 30%; pest or weed control at 125 g/ha [2, 11]: 70%; pest or weed control at 31 g/ha [2, 12]: 0%; pest or weed control at 62 g/ha [2, 12]: 0%; pest or weed control at 125 g/ha [2, 13]: 0%; pest or weed control at 250 g/ha [2, 13]: 0%; pest or weed control at 31 g/ha [3, 17]: 0%; pest or weed control at 62 g/ha [3, 17]: 0%; pest or weed control at 125 g/ha [3, 18]: 0%; pest or weed control at 250 g/ha [3, 18]: 40%; plant injury at 31 g/ha (soybean (Glycine max); [22]): 15%; plant injury at 62 g/ha (soybean (Glycine max); [22]): 75%; plant injury at 125 g/ha (soybean (Glycine max); [23]): 90%; plant injury at 250 g/ha (soybean (Glycine max); [23]): 100%
CCOC(=O)c1nc(C2CC2)nc(NN)c1Br [Compound 42] | 0% | 0% | 0% | 0% | 0% | 0% | 5% | 0% | 0% | 0% | 10% | 10% | 30% | 40% | 70% | pest or weed control at 125 g/ha [2, 10]: 0%
